Like-named read-outs stand apart in the source and are kept apart here.
System: IRF3
Test: IRF3 activation assay in THP-1 Dual cells
Format: cell-based
Details: Homo sapiens, read-out: THP1 IRF3 EC50
Protocol: THP-1 Dual Cells (Invivogen) were maintained in RPMI1640 medium with addition of 10% FBS, 100 μg/ml zeocin, 10 μg/ml blasticidin. Cells were added in a 96-well flat bottom assay plate at 100,000 per well in 100 μL complete RPMI medium. Test compounds were prepared by serial dilution in complete RPMI medium and 100 μL test compounds were transferred to each corresponding well. The assay plate was incubated at 37° C., 5% CO2 for 24 hours. After the overnight incubation, 20 μL of the culture supernatants were collected, followed by addition of 180 μL of QUANTI-Blue (Invivogen) to assess IRF3 activity. The amount of IRF3 activation was assessed by reading the absorbance at 620-655 nm with a microplate reader 2 hours later. The culture supernatant from the untreated THP-1 cells was used as the negative control. EC50 determination was performed by fitting the curve of percent control activity versus the log of the compound concentration using the GraphPad Prism 6.0 software.

Row | EC50 (THP-1, Table 4A) | EC50 (THP-1, Table 4B) | EC50 (THP-1, Table 4C) | Compound
1 | ≤ 100 nM | < 200 nM | ≤ 50 nM | CCn1nc(C)cc1C(=O)Nc1nc2cc(C(N)=O)cc(OCCCOC(=O)c3cc(C)nn3CC)c2n1C/C=C/Cn1c2nc(-c3cc(C)nn3CC)ncc2c2cc(C(N)=O)cc(OCCCOC)c21 [Example S21, (E)-3-((5-carbamoyl-1-(4-(6-carbamoyl-2-(1-ethyl-3-methyl-1H-pyrazol-5-yl)-8-(3-methoxypropoxy)-9H-pyrimido[4,5-b]indol-9-yl)but-2-en-1-yl)-2-(1-ethyl-3-methyl-1H-pyrazole-5-carboxamido)-1H-benzo[d]imidazol-7-yl)oxy)propyl 1-ethyl-3-methyl-1H-pyrazole-5-carboxylate]
2 |  |  | ≤ 50 nM | CCn1nc(C)cc1C(=O)Nc1nc2cc(C(N)=O)cc(OCCCO)c2n1C/C=C/Cn1c2ccc(C(N)=O)cc2c2cc(F)c(-c3cc(C)nn3CC)nc21 [Example S37, (E)-9-(4-(5-carbamoyl-2-(1-ethyl-3-methyl-1H-pyrazole-5-carboxamido)-7-(3-hydroxypropoxy)-1H-benzo[d]imidazol-1-yl)but-2-en-1-yl)-2-(1-ethyl-3-methyl-1H-pyrazol-5-yl)-3-fluoro-9H-pyrido[2,3-b]indole-6-carboxamide]
3 | ≤ 100 nM |  |  | CCn1nc(C)cc1-c1ncc2c3cc(C(N)=O)cc(OCCCO)c3n(C/C=C/Cn3c4nc(-c5cc(C)nn5CC)ncc4c4cc(C(N)=O)cc(OCCCO)c43)c2n1 [Example S65, (E)-9,9′-(but-2-ene-1,4-diyl)bis(2-(1-ethyl-3-methyl-1H-pyrazol-5-yl)-8-(3-hydroxypropoxy)-9H-pyrimido[4,5-b]indole-6-carboxamide)]
4 |  |  | 50 to 200 nM | CCn1nc(C)cc1C(=O)Nc1nc2cc(C(N)=O)cc(OCCCNC(=O)CCC(=O)O)c2n1C/C=C/Cn1c2nc(-c3cc(C)nn3CC)ncc2c2cc(C(N)=O)cc(OCCCOC)c21 [Example S64, (E)-4-((3-((5-carbamoyl-1-(4-(6-carbamoyl-2-(1-ethyl-3-methyl-1H-pyrazol-5-yl)-8-(3-methoxypropoxy)-9H-pyrimido[4,5-b]indol-9-yl)but-2-en-1-yl)-2-(1-ethyl-3-methyl-1H-pyrazole-5-carboxamido)-1H-benzo[d]imidazol-7-yl)oxy)propyl)amino)-4-oxobutanoic acid]
5 |  |  | 50 to 200 nM | CCn1nc(C)cc1C(=O)Nc1nc2cc(C(N)=O)cc(OCCCOC)c2n1C/C=C/Cn1c2nc(-c3cc(C)nn3CC)ncc2c2cc(C(N)=O)cc(OCCOCCOCCC(=O)O)c21 [Example S58, (E)-3-(2-(2-(6-carbamoyl-9-(4-(5-carbamoyl-2-(1-ethyl-3-methyl-1H-pyrazole-5-carboxamido)-7-(3-methoxypropoxy)-1H-benzo[d]imidazol-1-yl)but-2-enyl)-2-(1-ethyl-3-methyl-1H-pyrazol-5-yl)-9H-pyrimido[4,5-b]indol-8-yloxy)ethoxy)ethoxy)propanoic acid]
6 | 100 to 500 nM | < 1000 nM | 200 to 500 nM | CCn1nc(C)cc1C(=O)Nc1nc2cc(C(N)=O)cc(C)c2n1C/C=C/Cn1c2ccccc2c2cnc(-c3cc(C)nn3CC)nc21 [Example S2, (E)-1-(4-(2-(1-ethyl-3-methyl-1H-pyrazol-5-yl)-9H-pyrimido[4,5-b]indol-9-yl)but-2-enyl)-2-(1-ethyl-3-methyl-1H-pyrazole-5-carboxamido)-7-methyl-1H-benzo[d]imidazole-5-carboxamide]
7 |  |  | 500 to 1000 nM | CCn1nc(C)cc1C(=O)Nc1nc2cc(C(N)=O)cc(OCCCN)c2n1C/C=C/Cn1c2nc(-c3cc(C)nn3CC)ncc2c2cc(C(N)=O)cc(OCCCOC)c21 [Example S38, (E)-9-(4-(7-(3-aminopropoxy)-5-carbamoyl-2-(1-ethyl-3-methyl-1H-pyrazole-5-carboxamido)-1H-benzo[d]imidazol-1-yl)but-2-en-1-yl)-2-(1-ethyl-3-methyl-1H-pyrazol-5-yl)-8-(3-methoxypropoxy)-9H-pyrimido[4,5-b]indole-6-carboxamide]
8 | ≤ 100 nM |  |  | CCn1nc(C)cc1C(=O)Nc1nc2cc(C(N)=O)c3ccoc3c2n1C/C=C/Cn1c2nc(-c3cc(C)nn3CC)ncc2c2cc(C(N)=O)cc(OCCCO)c21 [Example S69, (E)-1-(4-(6-carbamoyl-2-(1-ethyl-3-methyl-1H-pyrazol-5-yl)-8-(3-hydroxypropoxy)-9H-pyrimido[4,5-b]indol-9-yl)but-2-en-1-yl)-2-(1-ethyl-3-methyl-1H-pyrazole-5-carboxamido)-1H-benzofuro[6,7-d]imidazole-5-carboxamide]
9 |  |  | 50 to 200 nM | CCn1nc(C)cc1C(=O)Nc1nc2cc(C(N)=O)cc(OCCCNC(=O)[C@@H](N)CC(=O)O)c2n1C/C=C/Cn1c2nc(-c3cc(C)nn3CC)ncc2c2cc(C(N)=O)cc(OCCCOC)c21 [Example S47, (S,E)-3-amino-4-((3-((5-carbamoyl-1-(4-(6-carbamoyl-2-(1-ethyl-3-methyl-1H-pyrazol-5-yl)-8-(3-methoxypropoxy)-9H-pyrimido[4,5-b]indol-9-yl)but-2-en-1-yl)-2-(1-ethyl-3-methyl-1H-pyrazole-5-carboxamido)-1H-benzo[d]imidazol-7-yl)oxy)propyl)amino)-4-oxobutanoic acid]
10 | 100 to 500 nM | < 1000 nM | 200 to 500 nM | CCn1nc(C)cc1C(=O)Nc1nc2cc(C(N)=O)cc(C)c2n1C/C=C/Cn1c2ccc(C(N)=O)cc2c2cnc(-c3cc(C(F)(F)F)nn3CC)nc21 [Example S9, (E)-9-(4-(5-carbamoyl-2-(1-ethyl-3-methyl-1H-pyrazole-5-carboxamido)-7-methyl-1H-benzo[d]imidazol-1-yl)but-2-enyl)-2-(1-ethyl-3-(trifluoromethyl)-1H-pyrazol-5-yl)-9H-pyrimido[4,5-b]indole-6-carboxamide]
11 |  |  | 50 to 200 nM | CCn1nc(C)cc1C(=O)Nc1nc2cc(C(N)=O)cc(OC)c2n1C/C=C/Cn1c2nc(-c3cc(C)nn3CC)ncc2c2cc(C(N)=O)cc(OCCC3CCN(C(=O)OCC(=O)O)CC3)c21 [Example S61]
12 |  |  | ≤ 50 nM | CCn1nc(C)cc1C(=O)Nc1nc2cc(C(N)=O)cc(OCCOC(=O)c3cc(C)nn3CC)c2n1C/C=C/Cn1c2nc(-c3cc(C)nn3CC)ncc2c2cc(C(N)=O)cc(OCCCOC)c21 [Example S40, (E)-2-((5-carbamoyl-1-(4-(6-carbamoyl-2-(1-ethyl-3-methyl-1H-pyrazol-5-yl)-8-(3-methoxypropoxy)-9H-pyrimido[4,5-b]indol-9-yl)but-2-en-1-yl)-2-(1-ethyl-3-methyl-1H-pyrazole-5-carboxamido)-1H-benzo[d]imidazol-7-yl)oxy)ethyl 1-ethyl-3-methyl-1H-pyrazole-5-carboxylate]
13 | ≤ 100 nM | < 200 nM | ≤ 50 nM | CCn1nc(C)cc1C(=O)Nc1nc2cc(C(N)=O)cc(C)c2n1C/C=C/Cn1c2ccc(C(N)=O)cc2c2cc(F)c(-c3cc(C)nn3CC)nc21 [Example S24, (E)-9-(4-(5-carbamoyl-2-(1-ethyl-3-methyl-1H-pyrazole-5-carboxamido)-7-methyl-1H-benzo[d]imidazol-1-yl)but-2-en-1-yl)-2-(1-ethyl-3-methyl-1H-pyrazol-5-yl)-3-fluoro-9H-pyrido[2,3-b]indole-6-carboxamide]
14 |  |  | 50 to 200 nM | CCn1nc(C)cc1C(=O)Nc1nc2cc(C(N)=O)cc(OCCCN3CCN(C)CC3)c2n1C/C=C/Cn1c2nc(-c3cc(C)nn3CC)ncc2c2cc(C(N)=O)cc(OCCCOC)c21 [Example S36, (E)-9-(4-(5-carbamoyl-2-(1-ethyl-3-methyl-1H-pyrazole-5-carboxamido)-7-(3-(4-methylpiperazin-1-yl)propoxy)-1H-benzo[d]imidazol-1-yl)but-2-en-1-yl)-2-(1-ethyl-3-methyl-1H-pyrazol-5-yl)-8-(3-methoxypropoxy)-9H-pyrimido[4,5-b]indole-6-carboxamide]
15 |  |  | ≤ 50 nM | CCn1nc(C)cc1C(=O)Nc1nc2cc(C(N)=O)cc(OCCCOC)c2n1C/C=C/Cn1c2nc(-c3cc(C)nn3CC)ncc2c2cc(C(N)=O)cc(OCCCNC(=O)CCCC(=O)O)c21 [Example S55, (E)-5-(3-(6-carbamoyl-9-(4-(5-carbamoyl-2-(1-ethyl-3-methyl-1H-pyrazole-5-carboxamido)-7-(3-methoxypropoxy)-1H-benzo[d]imidazol-1-yl)but-2-enyl)-2-(1-ethyl-3-methyl-1H-pyrazol-5-yl)-9H-pyrimido[4,5-b]indol-8-yloxy)propylamino)-5-oxopentanoic acid]
16 | ≤ 100 nM |  |  | CCn1nc(C)cc1C(=O)Nc1nc2cc(C(N)=O)cc(OC)c2n1C/C=C/Cn1c(NC(=O)c2cc(C)nn2CC)nc2cc(C(N)=O)cc(OCCCNC(C)=O)c21 [Example S33, (E)-7-(3-acetamidopropoxy)-1-(4-(5-carbamoyl-2-(1-ethyl-3-methyl-1H-pyrazole-5-carboxamido)-7-methoxy-1H-benzo[d]imidazol-1-yl)but-2-en-1-yl)-2-(1-ethyl-3-methyl-1H-pyrazole-5-carboxamido)-1H-benzo[d]imidazole-5-carboxamide]
17 |  |  | ≤ 50 nM | CCn1nc(C)cc1C(=O)Nc1nc2cc(C(N)=O)cc(OCCCC#N)c2n1C/C=C/Cn1c2nc(-c3cc(C)nn3CC)ncc2c2cc(C(N)=O)cc(OCCCOC)c21 [Example S34, (E)-9-(4-(5-carbamoyl-7-(3-cyanopropoxy)-2-(1-ethyl-3-methyl-1H-pyrazole-5-carboxamido)-1H-benzo[d]imidazol-1-yl)but-2-en-1-yl)-2-(1-ethyl-3-methyl-1H-pyrazol-5-yl)-8-(3-methoxypropoxy)-9H-pyrimido[4,5-b]indole-6-carboxamide]

Source: patent US11596692B1 (Incyte Corporation, priority 2018, dated 2023)
